{
  "source": "patent US9227977B2",
  "about": "“Phosphoinositide 3-kinase inhibitors” (RESPIVERT LTD., priority 2013, dated 2016)",
  "key": {"[1]": {"tested_on": "cigarette smoke-induced cell accumulation and biomarkers in murine BALF", "assay": "Cigarette smoke model", "assay_type": "in vivo, mouse", "conditions": "for % inhibition, Macrophages in BAL / % inhibition, Neutrophils in BAL / Cell numbers in BAL, Macrophages / Cell numbers in BAL, Neutrophils: mice, CS, intra-nasal; for Cell numbers in BAL, Macrophages / Cell numbers in BAL, Neutrophils: mean ± SEM; for Inhibition (%) of CXCL1 in BALF / Inhibition (%) of IL-17 in BALF / Inhibition (%) of MCP-1 in BALF / Inhibition (%) of MDA in BALF / Inhibition (%) of Osteopontin in BALF / Inhibition (%) of TNF α in BALF: with respect to tobacco", "procedure": "A/J mice (males, 5 weeks old) were exposed to cigarette smoke (4% cigarette smoke, diluted with compressed air) for 30 min/day for 11 days using a Tobacco Smoke Inhalation Experiment System for small animals (Model SIS-CS; Sibata Scientific Technology, Tokyo, Japan). Test substances were administered once daily for 3 days after the final cigarette smoke exposure (intra-nasal dose comprising 35 μL of solution in 50% DMSO/isotonic saline).\nAt 12 hr after administration of the last dose, animals were anesthetized, the trachea was cannulated and bronchial alveolar lavage (BAL) was carried out by the instillation into and then withdawal from the lungs, of PBS (100 mL/kg). Total cell numbers in the BALF samples were measured using a haemocytometer under a phase-contrast microscope. The proportions of alveolar macrophages and neutrophils were determined by FACS analysis using anti-mouse MOMA2-FITC (macrophage) or anti-mouse 7/4 (neutrophil).\nCells were suspended in PBS and were incubated with anti-MOMA2-FITC (2 μg/mL, Catalogue no SM065F, Acris Antibodies GmbH, Herford, Germany) or anti-7/4-FITC (2 μg/mL, Catalogue no CL050F, Acris Antibodies GmbH, Herford, Germany) for 30 min at 30° C., and also counterstained with propidium iodide (2 μg/mL) to allow exclusion of necrotic cells. The cells were washed with PBS, and transferred to FACS tubes. Samples was set in a flow cytometer (ALTRA II; Beckman Coulter Japan, Tokyo, Japan), and a single-parameter FL2 [PMT2] (FITC) histogram with log x-axis was plotted to illustrate relative intensity of FITC.\nData files are stored for subsequent analysis using Kaluza analysis software (ver. 1.2) to calculate the proportion of each cell type. The levels of CXCL1(KC), MCP1, TNFα, IL-17 or osteopontin in BALF were determined using Quentikine® mouse KC, MCP1, TNFα, IL-17 or osteopontin ELISA kit (R&D systems, Inc., Minneapolis, Minn., USA). The presence of malondialdehyde was measured using OxiSelect® TBARS Assay Kit (MDA Quantitation; Cell Biolabs Inc, San Diego, Calif., USA)."}, "[2]": {"target": "PI3K δ (Homo sapiens (Human), UniProt O00329)", "sequence (O00329 whole entry)": "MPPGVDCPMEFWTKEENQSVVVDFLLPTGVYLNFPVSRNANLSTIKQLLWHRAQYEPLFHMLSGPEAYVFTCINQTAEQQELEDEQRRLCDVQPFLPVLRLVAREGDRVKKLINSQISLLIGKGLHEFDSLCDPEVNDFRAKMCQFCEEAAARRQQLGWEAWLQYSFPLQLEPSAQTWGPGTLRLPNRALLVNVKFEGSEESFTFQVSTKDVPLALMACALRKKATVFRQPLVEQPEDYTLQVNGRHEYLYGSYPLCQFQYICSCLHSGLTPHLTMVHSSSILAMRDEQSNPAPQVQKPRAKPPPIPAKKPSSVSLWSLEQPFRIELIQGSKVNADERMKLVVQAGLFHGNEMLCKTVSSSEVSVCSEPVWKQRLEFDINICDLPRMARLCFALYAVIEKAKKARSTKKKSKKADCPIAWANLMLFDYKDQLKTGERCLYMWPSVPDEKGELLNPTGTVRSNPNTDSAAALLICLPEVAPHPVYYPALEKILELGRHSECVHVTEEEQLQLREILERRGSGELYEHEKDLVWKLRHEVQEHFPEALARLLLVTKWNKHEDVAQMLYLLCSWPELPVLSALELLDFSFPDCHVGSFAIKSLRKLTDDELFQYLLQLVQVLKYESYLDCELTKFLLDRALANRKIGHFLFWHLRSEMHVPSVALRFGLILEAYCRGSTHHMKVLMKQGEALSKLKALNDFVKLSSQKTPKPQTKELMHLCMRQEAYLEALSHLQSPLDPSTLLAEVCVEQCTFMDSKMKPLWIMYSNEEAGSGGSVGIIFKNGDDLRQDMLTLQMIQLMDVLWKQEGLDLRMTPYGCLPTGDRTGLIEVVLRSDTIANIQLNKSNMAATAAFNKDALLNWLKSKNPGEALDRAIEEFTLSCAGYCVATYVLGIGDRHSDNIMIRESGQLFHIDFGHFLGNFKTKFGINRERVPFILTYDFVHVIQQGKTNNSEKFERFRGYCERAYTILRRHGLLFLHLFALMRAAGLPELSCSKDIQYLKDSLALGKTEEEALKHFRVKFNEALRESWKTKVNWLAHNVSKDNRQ", "sequence (P27986 whole entry partner)": "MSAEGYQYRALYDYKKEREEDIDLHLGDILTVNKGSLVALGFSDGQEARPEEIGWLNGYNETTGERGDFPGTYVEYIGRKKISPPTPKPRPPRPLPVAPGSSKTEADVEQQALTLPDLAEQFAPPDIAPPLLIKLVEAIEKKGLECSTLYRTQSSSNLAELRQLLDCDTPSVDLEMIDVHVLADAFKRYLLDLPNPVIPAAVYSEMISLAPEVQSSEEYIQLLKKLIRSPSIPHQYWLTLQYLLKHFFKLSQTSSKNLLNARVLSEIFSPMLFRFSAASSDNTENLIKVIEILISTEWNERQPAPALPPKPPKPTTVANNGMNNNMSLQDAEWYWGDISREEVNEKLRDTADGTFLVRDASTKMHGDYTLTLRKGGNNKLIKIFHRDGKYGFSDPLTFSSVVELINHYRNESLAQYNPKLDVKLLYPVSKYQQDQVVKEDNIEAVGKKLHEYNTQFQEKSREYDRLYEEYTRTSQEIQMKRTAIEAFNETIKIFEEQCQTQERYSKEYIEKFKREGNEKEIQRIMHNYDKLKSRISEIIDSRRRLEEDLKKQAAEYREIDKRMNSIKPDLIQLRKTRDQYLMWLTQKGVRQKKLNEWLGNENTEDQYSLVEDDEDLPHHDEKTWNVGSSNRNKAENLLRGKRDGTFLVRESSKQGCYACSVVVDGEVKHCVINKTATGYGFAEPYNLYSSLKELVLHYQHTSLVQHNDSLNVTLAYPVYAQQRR", "assay": "PI3K δ cell based assay: H2O2-induced Akt phosphorylation in d-U937 cells", "conditions": "inhibition of induced Akt phosphorylation, H2O2 stimulus; read-out: REC50 values in d-U937 cells, H2O2 stimulus", "procedure": "As a means of assessing PI3K δ activation in response to stimuli, the phosphorylation status of the protein, Akt, a downstream product of PI3Kδ, signaling was determined.\nU937 cells, obtained from a human, leukemic, monocyte lymphoma cell line, were differentiated to macrophage-type cells by incubation with PMA (100 ng/mL) for 48 to 72 hr. Cells were then pre-incubated with either the test compound or vehicle for 2 hr and were then stimulated briefly by exposure to H2O2 (10 mM, 5-7 min) and the reaction stopped by replacing the media with 4% formaldehyde solution. […] After washing with buffer (PBS containing 0.1% Triton X-100), cells were incubated with an HRP-conjugated secondary antibody (Dako) and the resultant signal was determined colorimetrically (OD: 450 nm with a reference wavelength of 655 nm) using TMB substrate (substrate reagent pack supplied by R&D Systems, Inc.).\nThis reaction was stopped by the addition of H2SO4 solution (100 μL). […] After washing with buffer (PBS containing 0.1% Triton X-100) 1% SDS (100 μL) was added to each well and the plates were shaken lightly for 1 hr prior to measuring the absorbance at 595 nm (Varioskan® Flash, Thermo-Fisher Scientific). The measured OD450-655 readings were corrected for cell number by dividing the OD450-655 by the OD595 readings. The ratio of pAkt signal to total Akt signal was used to quantitate the extent of PI3K δ activation. […]"}},
  "data": [
    {"compound": "COCCOCCOCC#Cc1cccc2nc(Cn3nc(-c4cc(O)cc(F)c4)c4c(N)ncnc43)n(Cc3ccccc3C(F)(F)F)c(=O)c12", "note": "[Compound (I), 2-((4-Amino-3-(3-fluoro-5-hydroxyphenyl)-1H-pyrazolo[3,4-d]pyrimidin-1-yl)methyl)-5-(3-(2-(2-methoxyethoxy)ethoxy)prop-1-yn-1-yl)-3-(2-(trifluoromethyl)benzyl)quinazolin-4(3H)-one]", "values": [
      {"measurement": "potency versus compound A on cigarette-smoke induced cell accumulation in murine BALF (in words)", "setting": "[1]; contemporaneous study", "value": "more potent inhibitor"},
      {"measurement": "% inhibition, Macrophages in BAL", "setting": "[1]; 0.02 mg/mL", "value": 32, "unit": "%"},
      {"measurement": "% inhibition, Neutrophils in BAL", "setting": "[1]; 0.02 mg/mL", "value": 26, "unit": "%"},
      {"measurement": "Cell numbers in BAL, Macrophages", "setting": "[1]; 0.02 mg/mL", "value": "13.6 ± 0.2 x10^4/mL"},
      {"measurement": "Cell numbers in BAL, Neutrophils", "setting": "[1]; 0.02 mg/mL", "value": "8.6 ± 0.2 x10^4/mL"},
      {"measurement": "% inhibition, Macrophages in BAL", "setting": "[1]; 0.2 mg/mL", "value": 63, "unit": "%"},
      {"measurement": "% inhibition, Neutrophils in BAL", "setting": "[1]; 0.2 mg/mL", "value": 54, "unit": "%"},
      {"measurement": "Cell numbers in BAL, Macrophages", "setting": "[1]; 0.2 mg/mL", "value": "9.5 ± 0.2 x10^4/mL"},
      {"measurement": "Cell numbers in BAL, Neutrophils", "setting": "[1]; 0.2 mg/mL", "value": "6.0 ± 0.1 x10^4/mL"},
      {"measurement": "% inhibition, Macrophages in BAL", "setting": "[1]; 2 mg/mL", "value": 79, "unit": "%"},
      {"measurement": "% inhibition, Neutrophils in BAL", "setting": "[1]; 2 mg/mL", "value": 68, "unit": "%"},
      {"measurement": "Cell numbers in BAL, Macrophages", "setting": "[1]; 2 mg/mL", "value": "7.4 ± 0.3 x10^4/mL"},
      {"measurement": "Cell numbers in BAL, Neutrophils", "setting": "[1]; 2 mg/mL", "value": "4.6 ± 0.1 x10^4/mL"},
      {"measurement": "Inhibition (%) of CXCL1 in BALF", "setting": "[1]; Compound (I) 0.02 mg/mL", "value": 32, "unit": "%"},
      {"measurement": "Inhibition (%) of IL-17 in BALF", "setting": "[1]; Compound (I) 0.02 mg/mL", "value": 27, "unit": "%"},
      {"measurement": "Inhibition (%) of MCP-1 in BALF", "setting": "[1]; Compound (I) 0.02 mg/mL", "value": 28, "unit": "%"},
      {"measurement": "Inhibition (%) of MDA in BALF", "setting": "[1]; Compound (I) 0.02 mg/mL", "value": 25, "unit": "%"},
      {"measurement": "Inhibition (%) of Osteopontin in BALF", "setting": "[1]; Compound (I) 0.02 mg/mL", "value": 22, "unit": "%"},
      {"measurement": "Inhibition (%) of TNF α in BALF", "setting": "[1]; Compound (I) 0.02 mg/mL", "value": 22, "unit": "%"},
      {"measurement": "Inhibition (%) of CXCL1 in BALF", "setting": "[1]; Compound (I) 0.2 mg/mL", "value": 52, "unit": "%"},
      {"measurement": "Inhibition (%) of IL-17 in BALF", "setting": "[1]; Compound (I) 0.2 mg/mL", "value": 41, "unit": "%"},
      {"measurement": "Inhibition (%) of MCP-1 in BALF", "setting": "[1]; Compound (I) 0.2 mg/mL", "value": 45, "unit": "%"},
      {"measurement": "Inhibition (%) of MDA in BALF", "setting": "[1]; Compound (I) 0.2 mg/mL", "value": 42, "unit": "%"},
      {"measurement": "Inhibition (%) of Osteopontin in BALF", "setting": "[1]; Compound (I) 0.2 mg/mL", "value": 44, "unit": "%"},
      {"measurement": "Inhibition (%) of TNF α in BALF", "setting": "[1]; Compound (I) 0.2 mg/mL", "value": 38, "unit": "%"},
      {"measurement": "Inhibition (%) of CXCL1 in BALF", "setting": "[1]; Compound (I) 2 mg/mL", "value": 71, "unit": "%"},
      {"measurement": "Inhibition (%) of IL-17 in BALF", "setting": "[1]; Compound (I) 2 mg/mL", "value": 60, "unit": "%"},
      {"measurement": "Inhibition (%) of MCP-1 in BALF", "setting": "[1]; Compound (I) 2 mg/mL", "value": 78, "unit": "%"},
      {"measurement": "Inhibition (%) of MDA in BALF", "setting": "[1]; Compound (I) 2 mg/mL", "value": 64, "unit": "%"},
      {"measurement": "Inhibition (%) of Osteopontin in BALF", "setting": "[1]; Compound (I) 2 mg/mL", "value": 63, "unit": "%"},
      {"measurement": "Inhibition (%) of TNF α in BALF", "setting": "[1]; Compound (I) 2 mg/mL", "value": 62, "unit": "%"},
      {"measurement": "EC50", "setting": "[2]", "value": 7.4, "unit": "nM"}
    ]}
  ]
}
